As a reminder, the EC50 is the midpoint of the concentration-response curve.

“And” between values parts separate entries of the source, which are not always exact repeats. Equal values may be shown once.

Here are results for four molecules from paper PMC10272112 (Nature Communications, 2023).

The test system of test [1] is A549 cells. In words: CellRox deep red assay for ROS quantification (with or without arsenite). The format is cell-based. Particulars: TBHP -Ars; sheet 4d.
Another test concerns the target T1, HDAC8 (Homo sapiens, UniProt Q9BY41).
T1 sequence (Q9BY41 1-377): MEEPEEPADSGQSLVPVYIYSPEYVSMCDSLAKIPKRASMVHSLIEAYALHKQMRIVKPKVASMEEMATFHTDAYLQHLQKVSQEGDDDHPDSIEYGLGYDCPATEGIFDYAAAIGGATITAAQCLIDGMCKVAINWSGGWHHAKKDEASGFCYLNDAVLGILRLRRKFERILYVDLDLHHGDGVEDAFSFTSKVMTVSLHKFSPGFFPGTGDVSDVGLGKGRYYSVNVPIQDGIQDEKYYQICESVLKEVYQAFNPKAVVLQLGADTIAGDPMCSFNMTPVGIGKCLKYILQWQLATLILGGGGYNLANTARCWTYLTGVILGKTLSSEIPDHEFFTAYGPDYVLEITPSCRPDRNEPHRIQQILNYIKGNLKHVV
Kind of test: HDAC-Glo assay. The class given is biochemical. Details: purchased BPS Bioscience 50008. Particulars: for HDAC8 relative activity: sheet S2d. On the procedure:
(§1) To validate the inhibition of HDACs by LA and LM and elaborate on the structure-activity relationship (SAR) of enantiomers as well as oxidized versus reduced forms of the molecules, we performed enzyme activity assays for recombinant HDAC1,2,3,6,8 as well as FRET-based binding assay for recombinant HDAC10.
(§2) The experiments were performed according to ref. [48]. […] Drug dosing was performed with a D300e Digital Dispenser (Tecan). HDACs (7 ng/mL for HDAC1, 25 ng/mL for HDAC2, 200 ng/mL for HDAC3/Ncor2 complex, 100 ng/mL for HDAC6, 200 ng/mL for HDAC8) and inhibitors were incubated together at room temperature (RT) for 30 min. After the addition of the HDAC-Glo™ I/II reagent, plates were shaken (800 rpm orbital shaker, 30 s), centrifuged (300 g, 1 min), and incubated at RT for 30 min. Luminescence was detected with a CLARIOstar (BMG Labtech) plate reader.

The target in the next test is HDAC2 (Homo sapiens, UniProt Q92769). Kind of test: HDAC-Glo assay. The format is biochemical. Details: purchased BPS Bioscience 50002. The following applies: read-out: log EC50 from dose-dependent HDAC inhibition curves (converted). As for the experimental part: as §1, §2
A further test concerns the target T2, HDAC6 (Homo sapiens, UniProt Q9UBN7).
T2 sequence (Q9UBN7 1-1215): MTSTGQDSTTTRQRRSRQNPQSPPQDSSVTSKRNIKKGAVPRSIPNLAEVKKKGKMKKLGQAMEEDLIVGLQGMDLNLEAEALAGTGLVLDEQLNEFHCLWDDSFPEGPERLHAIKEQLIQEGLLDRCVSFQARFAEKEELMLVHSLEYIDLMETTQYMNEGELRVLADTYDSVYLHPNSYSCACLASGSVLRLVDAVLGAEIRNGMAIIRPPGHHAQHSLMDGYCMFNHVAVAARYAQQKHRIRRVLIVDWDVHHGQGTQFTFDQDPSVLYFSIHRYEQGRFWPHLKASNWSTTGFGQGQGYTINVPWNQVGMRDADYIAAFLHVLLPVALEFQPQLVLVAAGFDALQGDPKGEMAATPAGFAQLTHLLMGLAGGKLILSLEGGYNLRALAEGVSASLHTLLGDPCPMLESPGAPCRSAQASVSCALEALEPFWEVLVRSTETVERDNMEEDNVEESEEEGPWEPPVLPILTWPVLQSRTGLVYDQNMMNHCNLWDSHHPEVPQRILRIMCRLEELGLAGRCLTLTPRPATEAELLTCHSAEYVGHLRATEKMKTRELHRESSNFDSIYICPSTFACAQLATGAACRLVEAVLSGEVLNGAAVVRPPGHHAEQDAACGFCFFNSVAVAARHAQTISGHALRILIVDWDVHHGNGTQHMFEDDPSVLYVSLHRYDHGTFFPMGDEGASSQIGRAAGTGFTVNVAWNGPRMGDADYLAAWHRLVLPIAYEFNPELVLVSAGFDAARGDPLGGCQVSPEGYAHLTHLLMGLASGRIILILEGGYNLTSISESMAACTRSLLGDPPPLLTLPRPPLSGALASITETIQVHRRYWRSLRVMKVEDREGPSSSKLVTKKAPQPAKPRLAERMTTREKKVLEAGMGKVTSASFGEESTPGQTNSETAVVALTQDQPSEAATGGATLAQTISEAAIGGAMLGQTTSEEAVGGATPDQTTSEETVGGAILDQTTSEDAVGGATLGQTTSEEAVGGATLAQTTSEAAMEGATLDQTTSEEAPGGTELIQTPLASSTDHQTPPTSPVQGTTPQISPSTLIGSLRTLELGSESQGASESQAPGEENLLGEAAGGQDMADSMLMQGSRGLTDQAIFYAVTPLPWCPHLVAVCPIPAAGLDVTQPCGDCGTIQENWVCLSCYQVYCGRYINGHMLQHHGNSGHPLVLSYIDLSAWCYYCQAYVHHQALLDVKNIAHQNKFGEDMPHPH
Kind of test: HDAC-Glo assay. The class given is biochemical. Details: purchased BPS Bioscience 50006. The following applies: for HDAC6 relative activity: sheet S2d. As for the experimental part: as §1, §2

The target of the next test is HDAC1 (Homo sapiens, UniProt Q13547). In words: HDAC-Glo assay. The format is biochemical. Also noted: purchased BPS Bioscience 50051. Particulars: for raw luminescence signal, HDAC1 inhibition: 0.5 M TCEP; for HDAC1 relative activity: sheet S2d. As for the experimental part:
as §1, §2

Another test addresses T3, HDAC3/NcoR2 complex (Homo sapiens, UniProt O15379).
T3 construct: purchased BPS Bioscience 50003
Kind of test: HDAC-Glo assay. The class given is biochemical. Particulars: read-out: log EC50 from dose-dependent HDAC inhibition curves (converted). On the procedure:
as §1, §2

In test [2] the test system is A549 cells. Kind of test: Arsenite-induced stress granule formation (G3BP1 immunofluorescence). The following applies: for arsenite-induced stress granule quantification (G3BP1), Mean / arsenite-induced stress granule quantification (G3BP1), Median / arsenite-induced stress granule quantification (G3BP1), individual values: sheet 4b; for arsenite-induced stress granule quantification (G3BP1), individual values: single data points. The format is cell-based. On the procedure:
The acetylation status of proteins can affect their macromolecular associations and the tendency of proteins to phase-separate into liquid condensates such as stress granules. […] After pre-incubation of cells with the compound, stress granule formation was induced using 30 min of arsenite treatment (1 mM). After treatment, cells were fixed for immunofluorescence detection of stress granules via the common stress granule marker protein G3BP1[21].
0.03 × 10^6 A549 cells were seeded at 4-chamber slides (Thermo, Nunc) and cultured at 37 °C overnight. Cells were treated with HDAC inhibitor SAHA and Lipoic acid or LM for 6 h, followed by 1 mM Arsenite for 30 min. Cells were fixed by 4% PFA and permeabilized by 0.5% Triton X-100/PBS. 10% Goat serum in PBS was used for blocking. After manually selecting an area with cell confluency of 50–80%, 16 pictures were taken randomly around the central point (ZEISS software in-built function). Stress granule marker G3BP1 (Aviva Systems Biology, ARP37713_T100) was visualized and quantified by ImageJ. Statistical analysis was performed with GraphPad Prism.

[3] abbreviates: read-out: log EC50 from dose-dependent HDAC inhibition curves (converted).

Chain of HDAC1 (Q13547 whole entry): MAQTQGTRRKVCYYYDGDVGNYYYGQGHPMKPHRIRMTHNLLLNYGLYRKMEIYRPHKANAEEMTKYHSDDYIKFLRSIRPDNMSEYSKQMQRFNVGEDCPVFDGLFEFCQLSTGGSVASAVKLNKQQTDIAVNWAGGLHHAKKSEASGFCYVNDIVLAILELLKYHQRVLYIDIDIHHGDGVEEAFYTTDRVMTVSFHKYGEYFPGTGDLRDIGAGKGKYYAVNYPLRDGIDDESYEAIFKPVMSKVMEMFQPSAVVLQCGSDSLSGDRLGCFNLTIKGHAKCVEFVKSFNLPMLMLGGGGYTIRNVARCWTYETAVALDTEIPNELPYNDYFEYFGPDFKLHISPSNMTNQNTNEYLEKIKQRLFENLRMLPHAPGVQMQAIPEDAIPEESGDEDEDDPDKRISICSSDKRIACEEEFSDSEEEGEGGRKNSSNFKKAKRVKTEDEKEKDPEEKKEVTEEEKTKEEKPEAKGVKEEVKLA
T3 sequence (O15379 whole entry): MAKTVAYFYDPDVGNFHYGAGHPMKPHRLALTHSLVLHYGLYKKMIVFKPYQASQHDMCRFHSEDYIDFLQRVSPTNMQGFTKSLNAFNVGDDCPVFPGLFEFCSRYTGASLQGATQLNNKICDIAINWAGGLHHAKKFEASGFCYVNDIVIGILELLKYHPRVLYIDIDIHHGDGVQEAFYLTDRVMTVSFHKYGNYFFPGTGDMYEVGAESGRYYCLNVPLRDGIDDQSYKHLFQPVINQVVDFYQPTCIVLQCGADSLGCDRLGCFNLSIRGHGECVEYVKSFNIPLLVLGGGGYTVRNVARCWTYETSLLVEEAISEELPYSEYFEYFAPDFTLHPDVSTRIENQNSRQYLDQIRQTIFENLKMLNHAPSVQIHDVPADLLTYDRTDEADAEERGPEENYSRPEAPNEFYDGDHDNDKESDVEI
T3 sequence (Q9Y618 395-489 partner limits assumed): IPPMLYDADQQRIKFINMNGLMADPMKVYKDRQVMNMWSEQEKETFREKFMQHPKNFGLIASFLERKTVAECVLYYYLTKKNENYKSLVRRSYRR
Chain of HDAC2 (Q92769 whole entry): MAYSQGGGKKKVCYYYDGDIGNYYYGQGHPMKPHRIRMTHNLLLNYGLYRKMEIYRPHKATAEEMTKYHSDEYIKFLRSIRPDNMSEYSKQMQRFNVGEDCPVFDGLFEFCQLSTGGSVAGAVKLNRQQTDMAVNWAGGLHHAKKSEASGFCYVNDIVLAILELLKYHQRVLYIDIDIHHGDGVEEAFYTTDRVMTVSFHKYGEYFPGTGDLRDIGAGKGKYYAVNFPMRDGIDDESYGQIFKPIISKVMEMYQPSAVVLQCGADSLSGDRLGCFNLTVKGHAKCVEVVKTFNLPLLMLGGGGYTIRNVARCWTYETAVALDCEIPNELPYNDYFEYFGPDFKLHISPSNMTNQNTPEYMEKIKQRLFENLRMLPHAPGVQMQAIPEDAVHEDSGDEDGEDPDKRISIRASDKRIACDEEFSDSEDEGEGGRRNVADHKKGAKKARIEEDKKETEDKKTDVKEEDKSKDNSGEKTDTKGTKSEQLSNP

Turning to `CC(C)(C)OO` [TBHP], in the test on A549 cells [1], the “ROS (CellRox), relative to DMSO -Ars., Mean” value was 8.0156; the “ROS (CellRox), relative to DMSO -Ars., replicate values” is 8.277 and 8.688 and 7.082.

Regarding `O=C(O)CCCCC(S)CCS` (racemic) [RS LA reduced, (R/S)-dihydrolipoic acid], the EC50 on HDAC8 (setting [3]) was 20.2 µM; on HDAC2, 33.4 µM; on HDAC6 (setting [3]), 2.42 µM; on HDAC1 (setting [3]), 15.1 µM; on HDAC3/NcoR2 complex, 47.5 µM. For the same molecule, the “raw luminescence signal, HDAC1 inhibition” value is 10948 and 11336 and 10633 at HDAC1 (log10 M -3.30103, 3 technical replicates); 35128 and 33959 and 34884 on HDAC1 (log10 M -3.82945, 3 technical replicates); 100059 and 96489 and 102534 at HDAC1 (log10 M -4.35788, 3 technical replicates); 200567 and 200318 and 195985 at HDAC1 (log10 M -4.88629, 3 technical replicates); 315045 and 314071 and 307544 on HDAC1 (log10 M -5.41477, 3 technical replicates); 353287 and 345284 and 342473 at HDAC1 (log10 M -5.94309, 3 technical replicates). Moreover, the “raw luminescence signal, HDAC1 inhibition” value on HDAC1 (log10 M -6.47756, 3 technical replicates) is 372512 and 378178 and 378301; at HDAC1 (log10 M -6.87615, 3 technical replicates), 385390 and 377410 and 356944.

On to `O=C(O)CCCCC(S)CCS` (stereo not drawn) [LAred], for which the HDAC8 relative activity was 5.5387 and 6.443 and 4.956 on HDAC8 (log conc -3.30103); 15.2478 and 14.986 and 14.6707 on HDAC8 (log conc -3.82945); 32.9883 and 33.8093 and 29.5437 at HDAC8 (log conc -4.35788); 65.7743 and 68.9393 and 55.1609 at HDAC8 (log conc -4.88629); 94.4673 and 96.4781 and 81.2779 at HDAC8 (log conc -5.41477); 99.9702 and 99.768 and 95.3061 on HDAC8 (log conc -5.94309). The HDAC8 relative activity is 102.1 and 101.594 and 89.0594 at HDAC8 (log conc -6.47756); 104.349 and 101.731 and 91.7247 on HDAC8 (log conc -6.87615). For the same molecule, the HDAC6 relative activity is 1.901 and 1.871 and 1.9083 on HDAC6 (log conc -3.30103); 3.442 and 3.206 and 3.406 on HDAC6 (log conc -3.82945); 6.925 and 6.75 and 6.858 on HDAC6 (log conc -4.35788); 16.7633 and 15.9117 and 16.5726 at HDAC6 (log conc -4.88629); 38.1371 and 36.4753 and 35.86 on HDAC6 (log conc -5.41477); 60.9287 and 58.1296 and 64.9441 at HDAC6 (log conc -5.94309). Besides, the HDAC6 relative activity on HDAC6 (log conc -6.47756) is 84.471 and 78.2193 and 82.7984; at HDAC6 (log conc -6.87615) it was 87.6459 and 83.3784 and 85.1621. Further, the HDAC1 relative activity was 2.768 and 2.872 and 2.683 at HDAC1 (log conc -3.30103); 9.265 and 8.951 and 9.199 at HDAC1 (log conc -3.82945); 26.7114 and 25.7521 and 27.3764 on HDAC1 (log conc -4.35788); 53.7175 and 53.6506 and 52.4863 on HDAC1 (log conc -4.88629); 84.4773 and 84.2156 and 82.4618 on HDAC1 (log conc -5.41477); 94.7528 and 92.6024 and 91.8471 on HDAC1 (log conc -5.94309). Besides, the HDAC1 relative activity is 99.9185 and 101.441 and 101.474 at HDAC1 (log conc -6.47756); 103.379 and 101.234 and 95.7354 on HDAC1 (log conc -6.87615).

With `O=C(CCCCCCC(=O)Nc1ccccc1)NO` [Vorinostat], the “raw luminescence signal, HDAC1 inhibition” value was 1951 and 1963 and 1822 at HDAC1 (log10 M -4.30103, 3 technical replicates, listed as SAHA); 3958 and 4231 and 3895 at HDAC1 (log10 M -5.12407, 3 technical replicates, listed as SAHA); 19908 and 20969 and 19762 at HDAC1 (log10 M -5.94692, 3 technical replicates, listed as SAHA); 88503 and 91916 and 93868 at HDAC1 (log10 M -6.76955, 3 technical replicates, listed as SAHA); 248915 and 245579 and 256063 at HDAC1 (log10 M -7.59346, 3 technical replicates, listed as SAHA); 337631 and 344047 and 344507 on HDAC1 (log10 M -8.41567, 3 technical replicates, listed as SAHA). Also, the “raw luminescence signal, HDAC1 inhibition” value was 375556 and 372678 and 377396 on HDAC1 (log10 M -9.27327, 3 technical replicates, listed as SAHA); 346292 and 360694 and 357566 on HDAC1 (log10 M -10.062, 3 technical replicates, listed as SAHA). Further, the entries for the “arsenite-induced stress granule quantification (G3BP1), Mean” value with A549 cells [2] (SAHA 5 uM) and in the test with A549 cells [2] (SAHA 10 uM) were 45.6514 and 35.2798, respectively. The “arsenite-induced stress granule quantification (G3BP1), Median” value was found to be 49.1176 in the test with A549 cells [2] (SAHA 5 uM) and 36 in the test with A549 cells [2] (SAHA 10 uM). Besides, the “arsenite-induced stress granule quantification (G3BP1), individual values” in the test with A549 cells [2] (SAHA 5 uM) is 49.2857 and 50.3 and 41.875 and 50.4286 and 49.1176 and 51.2222 and 60.7 and 38.0833 and 56.9 and 30 and 49.3333 and 45.8824 and 50.6667 and 31.4 and 46 and 38.6364 and 52.8182 and 41.7273 and 33; in the test with A549 cells [2] (SAHA 10 uM) it was 44.5 and 23.5 and 22.5 and 18.5 and 15.6364 and 31 and 37.5882 and 55.1667 and 42.2 and 33.2 and 29.6923 and 41.5 and 52.75 and 25.3333 and 40.5 and 51.1667 and 36 and 30.8333 and 38.75. In addition, the “effect on stress granule numbers per cell” value with A549 cells [2] (pre-incubation 6 h, then 1 mM arsenite 30 min) is given as “dose-dependent reduction of stress granule numbers per cell”.
